# Reference: paper PMC7047876, “Potent Chimeric Antimicrobial Derivatives of the Medicago truncatula NCR247 Symbiotic Peptide” (Frontiers in Microbiology, 2020)
# Peptide text beside a SMILES is read from it.
# What was measured:
# Format in all cases: cell-based
# [1] = tested on: Acinetobacter baumannii (ATCC 17978); test: microbe, parasite or virus in culture; details: ATCC 17978, 3 h, pH 7.4; read-out: Minimal bactericidal concentration (MBC) A. b.
# From the text: (§1) The pathogenic bacterial strains obtained from the ATCC (United States) and NCTC (National Collection of Type Cultures – England) were the Gram-positive: Enterococcus faecalis (ATCC 29212), Staphylococcus aureus (HNCMO112011), Listeria monocytogenes (ATCC 19111) and the Gram-negative: Pseudomonas aeruginosa (ATCC 27853), Escherichia coli (ATCC 8739), Salmonella enterica (ATCC 13076), Klebsiella pneumoniae (NCTC 13440), Acinetobacter baumannii (ATCC 17978).
# (§2) Overnight bacterial cultures grown in LB were diluted and grown to OD600 = 0.2–0.6 at 37°C with shaking. After harvesting and washing bacteria in PPB, the suspensions were adjusted to OD600 = 0.1 corresponding to ∼10^7 bacteria/mL. Antimicrobial activity of the peptides and the antibiotics was determined in PPB in 96 well microplates using 10 μL bacterial suspension and 90 μL of the 2-fold serial dilutions of peptides or antibiotics. Peptides were tested from 25 μM to 0.125 μM whereas the antibiotics; carbenicillin (Cb) from Duchefa Biochemie (Prod.No. C0109.0025) and levofloxacin (Lvx) from Sigma-Aldrich (Prod.No. 28266-10MG-F) from […] to 0.1 μM. The microplates were incubated for 3 h at 37°C with 250 rpm shaking and then 5 μl from each sample was placed on LB agar and the growth of bacteria was monitored after overnight incubation at 37°C. The lowest concentration of the antimicrobial agents, which completely eliminated viable bacteria was the minimal bactericidal concentration (MBC).
# [2] = tested on: Enterococcus faecalis (ATCC 29212); test: microbe, parasite or virus in culture; details: ATCC 29212, 3 h, pH 7.4; read-out: Minimal bactericidal concentration (MBC) E. f.
# From the text: as §1, §2
# [3] = tested on: Escherichia coli (ATCC 8739); test: microbe, parasite or virus in culture; details: ATCC 8739, 3 h, pH 7.4; read-out: Minimal bactericidal concentration (MBC) E. c.
# From the text: as §1, §2
# [4] = tested on: Klebsiella pneumoniae (NCTC 13440); test: microbe, parasite or virus in culture; details: for MBC: NCTC 13440, 3 h, pH 7.4, read-out: Minimal bactericidal concentration (MBC) K. p.
# From the text: as §1, §2
# [5] = tested on: Listeria monocytogenes (ATCC 19111); test: microbe, parasite or virus in culture; details: for MBC: ATCC 19111, 3 h, pH 7.4, read-out: Minimal bactericidal concentration (MBC) L. m.
# From the text: as §1, §2
# [6] = tested on: Pseudomonas aeruginosa (ATCC 27853); test: microbe, parasite or virus in culture; details: ATCC 27853, 3 h, pH 7.4; read-out: Minimal bactericidal concentration (MBC) P. a.
# From the text: as §1, §2
# [7] = tested on: Salmonella enterica (ATCC 13076); test: microbe, parasite or virus in culture; details: ATCC 13076, 3 h, pH 7.4; read-out: Minimal bactericidal concentration (MBC) S. e.
# From the text: as §1, §2
# [8] = tested on: Staphylococcus aureus (HNCMO112011); test: microbe, parasite or virus in culture; details: HNCMO112011, 3 h, pH 7.4; read-out: Minimal bactericidal concentration (MBC) S. a.
# From the text: as §1, §2
# Acinetobacter baumannii = details: for MBC in Mueller Hinton Broth, panel (A), A. b.: 3 h; for MBC in Mueller Hinton Broth, panel (B), A. b. / MIC in Mueller Hinton Broth, panel (C), A. b.: 20 h
# From the text: as §1
# (§3) Ca^2+ and Mg^2+ can inhibit the antimicrobial activity of cationic peptides, therefore the MBC and MIC values were also determined in MHB, which unlike PPB contains divalent cations and allows growth of bacteria. Bacteria were grown and prepared similarly except that bacteria were resuspended in MHB. 10 μl of bacteria OD600 = 0.1, supplemented with 45 μl MHB and 45 μl of 2-fold dilution series of peptides, were cultivated for 3 and 20 h at 37°C with shaking. Optical density of each sample was measured (Hidex Sense Microplate Reader with Plate Reader Software version 5064) and 5 μl was placed on LB agar plates after 3 and 20 h treatment. The minimal inhibitory concentration (MIC) corresponded to the lowest concentration, which inhibited growth.
# Escherichia coli = details: for MBC in Mueller Hinton Broth, panel (A), E. c.: 3 h; for MBC in Mueller Hinton Broth, panel (B), E. c. / MIC in Mueller Hinton Broth, panel (C), E. c.: 20 h
# From the text: as §1, §3
# Staphylococcus aureus = details: for MBC in Mueller Hinton Broth, panel (A), S. a.: 3 h; for MBC in Mueller Hinton Broth, panel (B), S. a. / MIC in Mueller Hinton Broth, panel (C), S. a.: 20 h
# From the text: as §1, §3
# [9] = 3 h treatment in PPB (20 mM potassium-phosphate buffer, pH 7.4), 37°C, then plating on LB agar
compound,measurement,setting,value
"CC[C@H](C)[C@H](NC(=O)[C@H](CS)NC(=O)CNC(=O)[C@H](CC(N)=O)NC(=O)[C@@H](N)CCCNC(=N)N)C(=O)N[C@H](C(=O)N[C@@H](CC(=O)O)C(=O)N1CCC[C@H]1C(=O)N[C@@H](CCCNC(=N)N)C(=O)N[C@@H](CS)C(=O)N1CCC[C@H]1C(=O)N[C@@H](Cc1ccc(O)cc1)C(=O)N[C@@H](CCC(N)=O)C(=O)N[C@@H](CCC(N)=O)C(=O)N[C@@H](CS)C(=O)N[C@@H](CCCNC(=N)N)C(=O)N[C@@H](CCCNC(=N)N)C(=O)N1CCC[C@H]1C(=O)N[C@@H](CC(C)C)C(=O)N[C@@H](Cc1ccc(O)cc1)C(=O)N[C@@H](CS)C(=O)N[C@@H](CCCNC(=N)N)C(=O)N[C@@H](CCCNC(=N)N)C(=O)N[C@@H](CCCNC(=N)N)C(N)=O)C(C)C [A, NCR247] (H-RNGCIVDPRCPYQQCRRPLYCRRR-NH2; N-terminus assumed)",MBC,[1],12.5 µM
same,MBC,[2],>25 µM
same,MBC,[3],6.3 µM
same,Minimal bactericidal concentration (MBC) K. p.,[4]; [9],resistant at 25 μM
same,Minimal bactericidal concentration (MBC) L. m.,[5]; [9],resistant at 25 μM
same,MBC,[5],>25 µM
same,MBC,[6],3.1 µM
same,MBC,[7],25 µM
same,MBC,[8],6.3 µM
same,"MBC in Mueller Hinton Broth, panel (A), A. b.",Acinetobacter baumannii,> 25 µM
same,"MBC in Mueller Hinton Broth, panel (B), A. b.",Acinetobacter baumannii,>25 µM
same,"MIC in Mueller Hinton Broth, panel (C), A. b.",Acinetobacter baumannii,>25 µM
same,"MBC in Mueller Hinton Broth, panel (A), E. c.",Escherichia coli,> 25 µM
same,"MBC in Mueller Hinton Broth, panel (B), E. c.",Escherichia coli,>25 µM
same,"MIC in Mueller Hinton Broth, panel (C), E. c.",Escherichia coli,25 µM
same,"MBC in Mueller Hinton Broth, panel (A), S. a.",Staphylococcus aureus,> 25 µM
same,"MBC in Mueller Hinton Broth, panel (B), S. a.",Staphylococcus aureus,>25 µM
same,"MIC in Mueller Hinton Broth, panel (C), S. a.",Staphylococcus aureus,>25 µM
"CC(C)C[C@H](NC(=O)[C@@H]1CCCN1C(=O)[C@H](CCCNC(=N)N)NC(=O)[C@H](CCCNC(=N)N)NC(=O)[C@H](CS)NC(=O)[C@H](CCC(N)=O)NC(=O)[C@@H](N)CCC(N)=O)C(=O)N[C@@H](Cc1ccc(O)cc1)C(=O)N[C@@H](CS)C(=O)N[C@@H](CCCNC(=N)N)C(=O)N[C@@H](CCCNC(=N)N)C(=O)N[C@@H](CCCNC(=N)N)C(N)=O [B, NCR247C] (H-QQCRRPLYCRRR-NH2; N-terminus assumed)",MBC,[1],25 µM
same,MBC,[2],>25 µM
same,MBC,[3],6.3 µM
same,MBC,[4],>25 µM
same,MBC,[5],>25 µM
same,MBC,[6],25 µM
same,MBC,[7],>25 µM
same,MBC,[8],>25 µM
same,"MBC in Mueller Hinton Broth, panel (A), A. b.",Acinetobacter baumannii,> 25 µM
same,"MBC in Mueller Hinton Broth, panel (B), A. b.",Acinetobacter baumannii,>25 µM
same,"MIC in Mueller Hinton Broth, panel (C), A. b.",Acinetobacter baumannii,>25 µM
same,"MBC in Mueller Hinton Broth, panel (A), E. c.",Escherichia coli,> 25 µM
same,"MBC in Mueller Hinton Broth, panel (B), E. c.",Escherichia coli,>25 µM
same,"MIC in Mueller Hinton Broth, panel (C), E. c.",Escherichia coli,>25 µM
same,"MBC in Mueller Hinton Broth, panel (A), S. a.",Staphylococcus aureus,> 25 µM
same,"MBC in Mueller Hinton Broth, panel (B), S. a.",Staphylococcus aureus,>25 µM
same,"MIC in Mueller Hinton Broth, panel (C), S. a.",Staphylococcus aureus,>25 µM
"CC(C)C[C@H](NC(=O)[C@@H]1CCCN1C(=O)[C@H](CCCNC(=N)N)NC(=O)[C@H](CCCNC(=N)N)NC(=O)[C@H](CS)NC(=O)[C@H](CCC(N)=O)NC(=O)[C@@H](N)CCC(N)=O)C(=O)N[C@@H](Cc1ccc(O)cc1)C(=O)N[C@@H](CS)C(=O)N[C@@H](CCCNC(=N)N)C(=O)N[C@@H](CCCNC(=N)N)C(=O)N[C@@H](CCCNC(=N)N)C(=O)N[C@@H](Cc1c[nH]c2ccccc12)C(=O)N[C@@H](CO)C(=O)N[C@@H](Cc1c[nH]cn1)C(=O)N1CCC[C@H]1C(=O)N[C@@H](CCC(N)=O)C(=O)N[C@@H](Cc1ccccc1)C(=O)N[C@@H](CCC(=O)O)C(=O)N[C@@H](CCCCN)C(N)=O [C, NCR247C-StrepII] (H-QQCRRPLYCRRRWSHPQFEK-NH2; N-terminus assumed)",MBC,[1],25 µM
same,MBC,[2],>25 µM
same,MBC,[3],6.3 µM
same,MBC,[4],>25 µM
same,MBC,[5],>25 µM
same,MBC,[6],6.3 µM
same,MBC,[7],>25 µM
same,MBC,[8],6.3 µM
same,"MBC in Mueller Hinton Broth, panel (A), A. b.",Acinetobacter baumannii,> 25 µM
same,"MBC in Mueller Hinton Broth, panel (B), A. b.",Acinetobacter baumannii,>25 µM
same,"MIC in Mueller Hinton Broth, panel (C), A. b.",Acinetobacter baumannii,>25 µM
same,"MBC in Mueller Hinton Broth, panel (A), E. c.",Escherichia coli,> 25 µM
same,"MBC in Mueller Hinton Broth, panel (B), E. c.",Escherichia coli,>25 µM
same,"MIC in Mueller Hinton Broth, panel (C), E. c.",Escherichia coli,>25 µM
same,"MBC in Mueller Hinton Broth, panel (A), S. a.",Staphylococcus aureus,> 25 µM
same,"MBC in Mueller Hinton Broth, panel (B), S. a.",Staphylococcus aureus,>25 µM
same,"MIC in Mueller Hinton Broth, panel (C), S. a.",Staphylococcus aureus,>25 µM
"CSCC[C@H](NC(=O)[C@H](CCCCN)NC(=O)[C@H](Cc1ccccc1)NC(=O)[C@H](CC(N)=O)NC(=O)[C@H](CC(C)C)NC(=O)[C@@H]1CCCN1C(=O)[C@@H](N)CCCNC(=N)N)C(=O)N[C@@H](CC(C)C)C(=O)N[C@@H](CCCNC(=N)N)C(=O)N[C@@H](Cc1ccccc1)C(=O)N[C@@H](Cc1c[nH]c2ccccc12)C(=O)NCC(=O)N[C@@H](CCC(N)=O)C(=O)N[C@@H](CCC(N)=O)C(=O)N[C@@H](CCC(N)=O)C(=O)N[C@@H](CS)C(=O)N[C@@H](CCCNC(=N)N)C(=O)N[C@@H](CCCNC(=N)N)C(=O)N1CCC[C@H]1C(=O)N[C@@H](CC(C)C)C(=O)N[C@@H](Cc1ccc(O)cc1)C(=O)N[C@@H](CS)C(=O)N[C@@H](CCCNC(=N)N)C(=O)N[C@@H](CCCNC(=N)N)C(=O)N[C@@H](CCCNC(=N)N)C(=O)N[C@@H](Cc1c[nH]c2ccccc12)C(=O)N[C@@H](CO)C(=O)N[C@@H](Cc1c[nH]cn1)C(=O)N1CCC[C@H]1C(=O)N[C@@H](CCC(N)=O)C(=O)N[C@@H](Cc1ccccc1)C(=O)N[C@@H](CCC(=O)O)C(=O)N[C@@H](CCCCN)C(N)=O [E, X1-NCR247C-StrepII] (H-RPLNFKMLRFWGQQQCRRPLYCRRRWSHPQFEK-NH2; N-terminus assumed)",MBC,[1],3.1 µM
same,MBC,[2],12.5 µM
same,MBC,[3],3.1 µM
same,MBC,[4],6.3 µM
same,MBC,[5],3.1 µM
same,MBC,[6],3.1 µM
same,MBC,[7],3.1 µM
same,MBC,[8],3.1 µM
same,"MBC in Mueller Hinton Broth, panel (A), A. b.",Acinetobacter baumannii,12.5 µM
same,"MBC in Mueller Hinton Broth, panel (B), A. b.",Acinetobacter baumannii,6.3 µM
same,"MIC in Mueller Hinton Broth, panel (C), A. b.",Acinetobacter baumannii,6.3 µM
same,"MBC in Mueller Hinton Broth, panel (A), E. c.",Escherichia coli,25 µM
same,"MBC in Mueller Hinton Broth, panel (B), E. c.",Escherichia coli,6.3 µM
same,"MIC in Mueller Hinton Broth, panel (C), E. c.",Escherichia coli,6.3 µM
same,"MBC in Mueller Hinton Broth, panel (A), S. a.",Staphylococcus aureus,25 µM
same,"MBC in Mueller Hinton Broth, panel (B), S. a.",Staphylococcus aureus,6.3 µM
same,"MIC in Mueller Hinton Broth, panel (C), S. a.",Staphylococcus aureus,6.3 µM
